In experiment [1] the target is human melanocortin 5 receptor (human) (UniProt P33032). In words: cell-based or functional assay.
Experiment [2] deals with human melanocortin 1 receptor (human) (UniProt Q01726). As to the kind of experiment: cell-based or functional assay.
For experiment [3], the target named is human melanocortin 4 receptor (human) (UniProt P32245). In words: cell-based or functional assay.
For experiment [4], the target named is human melanocortin 3 receptor (human) (UniProt P41968). As to the kind of experiment: cell-based or functional assay.
Sequence of human melanocortin 3 receptor (human) (P41968 whole entry): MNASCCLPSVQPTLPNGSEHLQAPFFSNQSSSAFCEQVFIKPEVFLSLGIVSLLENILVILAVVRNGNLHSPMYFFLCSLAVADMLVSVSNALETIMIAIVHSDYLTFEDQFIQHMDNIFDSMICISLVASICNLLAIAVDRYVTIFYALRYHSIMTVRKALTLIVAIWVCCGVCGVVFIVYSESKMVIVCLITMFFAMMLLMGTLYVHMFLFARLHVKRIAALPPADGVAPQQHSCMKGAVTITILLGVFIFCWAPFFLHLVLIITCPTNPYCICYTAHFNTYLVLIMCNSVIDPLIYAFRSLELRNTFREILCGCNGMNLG
Experiment [5] addresses T1, hMC5-R (Homo sapiens, UniProt P33032).
T1 construct: expressed in transfected cells; host or cells: CHO-K1
In words: Cyclic AMP bioassay, hMC5-R. Type of experiment: cell-based.
Protocol: (§4) Intracellular cyclic AMP (cAMP) levels were determined by an electrochemiluminescence (ECL) assay (Meso Scale Discovery, Gaithersburg, Md.) (referred to hereinafter as “MSD”). […] Transgenic CHO-K1 cells stably expressing hMC receptor subtypes 1, 3, 4 or 5 were dispensed at a density of approximately 7,000 cells/well in 384-well Multi-Array plates (MSD) containing integrated carbon electrodes and coated with anti-cAMP antibody. Increasing concentrations of the test compounds were added and the cells were incubated for approximately 40 minutes at approximately 37° C. […] At the end of the second incubation period read buffer (Tris-buffered solution containing an ECL co-reactant and Triton X-100 at ph 7.8) was added and the cAMP levels in the cell lysates were immediately determined by ECL detection with a Sector Imager 6000 reader® (MSD). Data were analyzed using a computer-assisted non-linear regression analysis (XL fit; IDBS) and reported as either an EC50 value or a Kb value.
(§5) The Kb value reflects the potency of an antagonist and is determined by Schild analysis. In brief, concentration-response curves of an agonist are carried out in the presence of increasing concentrations of an antagonist. […] It is calculated by extrapolating the line on a Schild plot to zero on the y-axis.

The target of experiment [6] is T1, hMC5-R. As to the kind of experiment: Radioligand binding assay, hMC5-R. How it is done:
(§1) The CHO-K1 cells expressing the desired hMC-R receptor type were sonicated (Branson, Danbury, Conn.) (etting 7, approximately 30 sec) in ice-cold 50 mM Tris-HCl at pH 7.4 and then centrifuged at 39,000 g for 10 minutes at approximately 4° C. The pellets were resuspended in the same buffer and centrifuged at 50,000 g for 10 minutes at approximately 4° C. The washed pellets containing the cellular membranes were stored at approximately −80° C.
(§2) Filters were washed three times with 50 mM Tris-HCl at pH 7.4 at a temperature of approximately 0-4° C. and then assayed for radioactivity using a Packard Topcount® scintillation counter (GMI, Inc., Ramsey, Minn.).

Experiment [7] concerns the target T2, hMC3-R (Homo sapiens, UniProt P41968).
T2 construct: expressed in transfected cells; host or cells: CHO-K1
In words: Cyclic AMP bioassay, hMC3-R. Type of experiment: cell-based.
Protocol: as §4, §5

Experiment [8] has as its target T2, hMC3-R. In words: Radioligand binding assay, hMC3-R. How it is done: (§3) The pellets were resuspended in the same buffer and centrifuged at 50,000 g for 10 minutes at approximately 4° C. The washed pellets containing the cellular membranes were stored at approximately −80° C.
as §2

Experiment [9] deals with T3, hMC4-R (Homo sapiens, UniProt P32245).
T3 construct: expressed in transfected cells; host or cells: CHO-K1
T3 sequence (P32245 whole entry): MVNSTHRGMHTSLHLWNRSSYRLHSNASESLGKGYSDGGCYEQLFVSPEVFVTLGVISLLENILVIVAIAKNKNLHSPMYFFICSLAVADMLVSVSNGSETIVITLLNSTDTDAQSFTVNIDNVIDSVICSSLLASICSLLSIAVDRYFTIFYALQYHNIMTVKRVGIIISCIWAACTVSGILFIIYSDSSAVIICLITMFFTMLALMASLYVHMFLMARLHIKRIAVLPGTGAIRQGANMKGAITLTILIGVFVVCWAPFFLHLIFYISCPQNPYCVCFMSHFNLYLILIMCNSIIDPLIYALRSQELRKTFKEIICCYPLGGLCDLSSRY
In words: Radioligand binding assay, hMC4-R. The protocol: as §3, §2

Experiment [10] addresses T4, hMC1-R (Homo sapiens, UniProt Q01726). As to the kind of experiment: Cyclic AMP bioassay, hMC1-R.
Protocol: as §4, §5
For experiment [11], the target named is T4, hMC1-R. As to the kind of experiment: Radioligand binding assay, hMC1-R. On the set-up: expressed in transfected cells; host or cells: CHO-K1. The protocol:
as §1, §2

Experiment [12] deals with T3, hMC4-R. As to the kind of experiment: Cyclic AMP bioassay, hMC4-R. The experiment is classed as cell-based.
Protocol: as §4, §5
Experiment [13] has as its target human melanocortin 3 receptor (human) (UniProt P41968). In words: competitive displacement of [125I]-NDP-alpha-MSH, membranes of CHO-K1 cells expressing hMC3-R. In general terms: Loss of bound radioactivity is the signal in a displacement assay; it reports binding, not function.

A word on the EC50: it is the midpoint of the concentration-response curve. Low values mean an effect from little substance, high ones a need for much substance. The term Ki denotes a dissociation constant, usually derived from enzyme kinetics or from competition with a known ligand. A high value points to weaker binding.

Where a SMILES comes first, the peptide text is derived from it. Bridges are numbered along the chain shown (N, C = ends). [ ]: non-standard residue; d: D form.

Sequence of human melanocortin 5 receptor (human) (P33032 whole entry): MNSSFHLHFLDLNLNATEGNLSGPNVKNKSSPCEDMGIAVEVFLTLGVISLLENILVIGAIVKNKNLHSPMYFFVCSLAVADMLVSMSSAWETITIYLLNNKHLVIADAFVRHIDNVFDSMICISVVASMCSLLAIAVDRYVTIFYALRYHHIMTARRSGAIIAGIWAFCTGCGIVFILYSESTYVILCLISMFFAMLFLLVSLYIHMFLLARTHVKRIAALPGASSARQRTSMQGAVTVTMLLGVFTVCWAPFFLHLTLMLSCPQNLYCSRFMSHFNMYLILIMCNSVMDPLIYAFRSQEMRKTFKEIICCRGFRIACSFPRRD
T1 sequence (P33032 whole entry): as above
Sequence of human melanocortin 4 receptor (human) (P32245 whole entry): as the sequence (P32245 whole entry) above
T2 sequence (P41968 whole entry): as the sequence (P41968 whole entry) above
T4 sequence (Q01726 whole entry): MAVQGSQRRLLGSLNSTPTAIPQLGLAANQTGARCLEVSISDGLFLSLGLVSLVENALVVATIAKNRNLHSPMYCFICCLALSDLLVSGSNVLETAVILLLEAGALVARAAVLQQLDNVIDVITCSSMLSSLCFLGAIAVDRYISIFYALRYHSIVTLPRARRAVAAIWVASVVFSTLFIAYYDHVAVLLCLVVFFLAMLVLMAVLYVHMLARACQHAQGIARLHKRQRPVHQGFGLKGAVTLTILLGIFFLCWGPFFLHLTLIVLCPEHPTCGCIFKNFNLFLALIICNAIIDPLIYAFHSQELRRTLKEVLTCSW
Sequence of human melanocortin 1 receptor (human) (Q01726 whole entry): as above

With “Ac-2-Nal-Arg-c(Cys-D-Ala-His-D-Phe-Arg-Trp-Cys)-NH2 (peptide)”, the EC50, cAMP bioassay (ECL) in CHO-K1 cells expressing hMC5-R in experiment [1] was 1730 nM. This molecule also came in with an EC50, cAMP bioassay (ECL) in CHO-K1 cells expressing hMC1-R in experiment [2] of 9.66 nM. Further, the EC50, cAMP bioassay (ECL) in CHO-K1 cells expressing hMC4-R in experiment [3] worked out at 0.275 nM. The same molecule had an EC50, cAMP bioassay (ECL) in CHO-K1 cells expressing hMC3-R in experiment [4] of 6.11 nM.

For the molecule `CC(=O)N[C@@H](Cc1ccc(O)cc1)C(=O)N[C@@H](CCCNC(=N)N)C(=O)N[C@H]1CSSC[C@@H](C(N)=O)NC(=O)[C@H](Cc2c[nH]c3ccccc23)NC(=O)[C@H](CCCNC(=N)N)NC(=O)[C@@H](Cc2ccccc2)NC(=O)[C@H](Cc2c[nH]cn2)NC(=O)[C@@H](C)NC1=O` [Ac-Tyr-Arg-c(Cys-D-Ala-His-D-Phe-Arg-Trp-Cys)-NH2], in [5], it took 1540 nM to reach a half-maximal effect (EC50). Also, affinity in [6] was put at a Ki of 714 nM.

Take `CC(=O)N[C@@H](Cc1c[nH]c2ccccc12)C(=O)N[C@@H](CCCNC(=N)N)C(=O)N[C@H]1CSSC[C@@H](C(N)=O)NC(=O)[C@H](Cc2c[nH]c3ccccc23)NC(=O)[C@H](CCCNC(=N)N)NC(=O)[C@@H](Cc2ccccc2)NC(=O)[C@H](Cc2c[nH]cn2)NC(=O)[C@@H](C)NC1=O` [Ac-Trp-Arg-c(Cys-D-Ala-His-D-Phe-Arg-Trp-Cys)-NH2] (Ac-WRC[dA]H[dF]RWC-NH2; disulfide 3-9): the EC50 in experiment [7] came out at 3.95 nM; in [5], 2580 nM; in experiment [10], 5.78 nM; in experiment [12], 0.219 nM. Further, the Ki in [8] is 42 nM; in [9], 2.25 nM; in experiment [6], 1470 nM; in [11], 4.7 nM.

Take `CC(=O)N[C@@H](Cc1c(F)c(F)c(F)c(F)c1F)C(=O)N[C@@H](CCCNC(=N)N)C(=O)N[C@H]1CSSC[C@@H](C(N)=O)NC(=O)[C@H](Cc2c[nH]c3ccccc23)NC(=O)[C@H](CCCNC(=N)N)NC(=O)[C@@H](Cc2ccccc2)NC(=O)[C@H](Cc2c[nH]cn2)NC(=O)[C@@H](C)NC1=O` [Ac-Pff-Arg-c(Cys-D-Ala-His-D-Phe-Arg-Trp-Cys)-NH2]: the Ki in experiment [8] worked out at 1.33 nM; in [9], 1.95 nM; in [6], 786 nM; in experiment [11], 0.323 nM.

In turn, “Ac-1-Nal-Arg-c(Cys-D-Ala-His-D-Phe-Arg-Trp-Cys)-NH2 (peptide)” returned an EC50, cAMP bioassay (ECL) in CHO-K1 cells expressing hMC5-R in experiment [1] of 1320 nM. In addition, the EC50, cAMP bioassay (ECL) in CHO-K1 cells expressing hMC1-R in experiment [2] turned out to be 8.67 nM. The molecule also had an EC50, cAMP bioassay (ECL) in CHO-K1 cells expressing hMC4-R in experiment [3] of 0.363 nM. The molecule further came in with an EC50, cAMP bioassay (ECL) in CHO-K1 cells expressing hMC3-R in experiment [4] of 4.21 nM.

In the case of “Ac-Trp-Arg-c(Cys-D-Ala-His-D-Phe-Arg-Trp-Cys)-NH2 (peptide)”, in experiment [1], the EC50, cAMP bioassay (ECL) in CHO-K1 cells expressing hMC5-R is 2580 nM. In addition, the EC50, cAMP bioassay (ECL) in CHO-K1 cells expressing hMC1-R in experiment [2] was determined as 5.78 nM. In addition, the EC50, cAMP bioassay (ECL) in CHO-K1 cells expressing hMC4-R in experiment [3] worked out at 0.219 nM. Moreover, in [4], the EC50, cAMP bioassay (ECL) in CHO-K1 cells expressing hMC3-R is 3.95 nM.

In the case of `CC(=O)N[C@@H](Cc1ccc2ccccc2c1)C(=O)N[C@@H](CCCNC(=N)N)C(=O)N[C@H]1CSSC[C@@H](C(N)=O)NC(=O)[C@H](Cc2c[nH]c3ccccc23)NC(=O)[C@H](CCCNC(=N)N)NC(=O)[C@@H](Cc2ccccc2)NC(=O)[C@H](Cc2c[nH]cn2)NC(=O)[C@@H](C)NC1=O` [Ac-2-Nal-Arg-c(Cys-D-Ala-His-D-Phe-Arg-Trp-Cys)-NH2], the EC50 in experiment [7] stood at 6.11 nM; in experiment [5] it was 1730 nM; in experiment [10], 9.66 nM; in [12], 0.275 nM. Moreover, the Ki in experiment [8] amounted to 34.9 nM; in [9], 2.02 nM; in experiment [6], 864 nM; in experiment [11] it was 6.09 nM.

As for `CC(=O)N[C@@H](Cc1ccccc1)C(=O)N[C@@H](CCCNC(=N)N)C(=O)N[C@H]1CSSC[C@@H](C(N)=O)NC(=O)[C@H](Cc2c[nH]c3ccccc23)NC(=O)[C@H](CCCNC(=N)N)NC(=O)[C@@H](Cc2ccccc2)NC(=O)[C@H](Cc2c[nH]cn2)NC(=O)[C@@H](C)NC1=O` [Ac-Phe-Arg-c(Cys-D-Ala-His-D-Phe-Arg-Trp-Cys)-NH2] (Ac-FRC[dA]H[dF]RWC-NH2; disulfide 3-9), the Ki was found to be 14.8 nM in [8], 2.34 nM in [9], 491 nM in experiment [6] and 1.48 nM in experiment [11].

Turning to “Ac-Tyr-Arg-c(Cys-D-Ala-His-D-Phe-Arg-Trp-Cys)-NH2 (peptide)”, the Ki in [13] is 21.2 nM. This molecule also had an EC50, cAMP bioassay (ECL) in CHO-K1 cells expressing hMC5-R in experiment [1] of 1540 nM. The molecule also yielded an EC50, cAMP bioassay (ECL) in CHO-K1 cells expressing hMC3-R in experiment [4] of 2.39 nM.

`CC(=O)N[C@@H](Cc1cccc2ccccc12)C(=O)N[C@@H](CCCNC(=N)N)C(=O)N[C@H]1CSSC[C@@H](C(N)=O)NC(=O)[C@H](Cc2c[nH]c3ccccc23)NC(=O)[C@H](CCCNC(=N)N)NC(=O)[C@@H](Cc2ccccc2)NC(=O)[C@H](Cc2c[nH]cn2)NC(=O)[C@@H](C)NC1=O` [Ac-1-Nal-Arg-c(Cys-D-Ala-His-D-Phe-Arg-Trp-Cys)-NH2]: the EC50 in [7] was found to be 4.21 nM; in [5] it was 1320 nM; in experiment [10], 8.67 nM; in [12], 0.363 nM. Besides, the Ki in experiment [8] was determined as 36.4 nM; in experiment [9] it was 1.53 nM; in experiment [6], 888 nM; in experiment [11], 6.27 nM.
